As a reminder, the IC50 is the concentration needed to halve the response being measured. Low values mean greater potency in that assay, high ones weaker potency in that assay.

These results are taken from ChEMBL document CHEMBL1154376, “Anomalous microbial transformations on the taxane ring of 10-DAB by a strain of the fungus Curvularia lunata: transbenzoylation, transacetylation, and opening of the oxetane ring” (J Nat Prod, 2009).

This test concerns NCI-H460. The test is described as follows: Cytotoxicity against human H460 cells. It is filed as functional, cell-based.
The compound `C=C1[C@H]2C[C@@]3(OC(=O)c4ccccc4)C(=O)[C@@H]4[C@]5(OC(C)=O)CO[C@@H]5C[C@H](O)[C@@]4(C)[C@H](O)[C@@](O)(O2)[C@@H]1C3(C)C` returned an IC50 of 51.5 µM.
With `CC(=O)O[C@@]12CO[C@@H]1C[C@@H](O)[C@@]1(C)C(=O)C(=O)C3=C(C)[C@@H](O)C[C@@](O)([C@@H](OC(=O)c4ccccc4)[C@H]21)C3(C)C`, the IC50 came out at 60 µM.
On to `C=C1[C@H]2C[C@@]3(OC(=O)c4ccccc4)C(=O)[C@@H]4[C@](O)(COC(C)=O)[C@@H](O)C[C@H](O)[C@@]4(C)[C@H](O)[C@@](O)(O2)[C@@H]1C3(C)C`, for which the half-maximal inhibitory concentration (IC50) amounted to 95.2 µM.
Consider `CC(=O)O[C@@]12CO[C@@H]1C[C@H](O)[C@@]1(C)C(=O)[C@H](O)C3=C(C)[C@@H](O)C[C@@](O)([C@@H](OC(=O)c4ccccc4)[C@H]21)C3(C)C`, for which half-maximal inhibition (IC50) was put at 3.1 µM.
